In patent US9707244B2, “Compositions and methods for treating conditions that affect epidermis” (Gencia Corporation, priority 2013, dated 2017):

Test system: EpiDerm Full Thickness 400 (EFT-400) tissues
Experiment: Mattek full-thickness skin model (EFT-400) skin thickness
Format: cell-based
Details: 25 nM with corticosteroid, 14 days; on average; p<0.001
Procedure: Following the protocol of Schoepe, we used the FTSM model to determine if co-treatment with Mitocreatine would reduce the loss in skin thickness produced by glucocorticoids.
2.5 mL of EpiDerm Full Thickness 400 (EFT-400) medium was dispensed into each well of the four 6-well plates aseptically in the tissue culture hood. The plates containing the EFT-400 tissues were removed from their plastic packaging and transferred using sterile forceps into the 6-well plates containing the 2.5 mL of EFT-400 media, making sure that no agarose adheres to the insert and that the media makes full contact with the underside of the tissue insert membrane (no air bubbles under the insert). The apical surface of the tissue should remain exposed to air (no media should be added to the side of the insert).
The tissues were equilibrated overnight at 37° C., 5% CO2. Treatment conditions are listed below in Table 5.
Day 2-13: The plates were visually examined and the media containing the test compounds was replenished each day.
Day 15: The inserts were dislodged from the support and the tissue carefully removed from the support with a scalpel.
The tissues were placed in 50 mL conical tubes containing 10% phosphate buffered formalin and sent for sectioning, histological processing and H&E staining Slides were visualized using a Leica Stereoscope equipped with a digital camera. Images were acquired and measured using ExoLabs software. Data was tabulated in Excel and the results were analyzed.

## CN(CC(=O)NCCC[P+](c1ccccc1)(c1ccccc1)c1ccccc1)C(=N)N.Cl.[Cl-] [Mitocreatine, N^2-[ammonio(imino)methyl]-N^2-methyl-N-[3-(triphenylphosphonio)propyl] glycinamide dichloride]
  improvement of skin thickness: 50%
